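Cultured in 96-well plates, cells were exposed to test compound for 48 hours across five concentrations. GI50 marks 50% less growth.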 The source made the active and inactive calls. Cut-off read from the data, not from the text of the source: active = GI50 up to about 1.1 µM and inactive = higher.
Key:
Test in all cases: NCI tumour cell line growth inhibition, 48 h
SNB-78 = tested on: SNB-78
OVCAR-3 = tested on: OVCAR-3
TK-10 = tested on: TK-10
SNB-19 = tested on: SNB-19
SF-295 = tested on: SF-295
IGROV-1 = tested on: IGROV-1
M14 = tested on: M14
NCI-H522 = tested on: NCI-H522
SK-MEL-5 = tested on: SK-MEL-5
KM-20L2 = tested on: KM-20L2
NCI-H460 = tested on: NCI-H460
SK-MEL-28 = tested on: SK-MEL-28
UACC-257 = tested on: UACC-257
RXF 393 = tested on: RXF 393
OVCAR-8 = tested on: OVCAR-8
SW-620 = tested on: SW-620
U-251 = tested on: U-251
LOX IMVI = tested on: LOX IMVI
HCT-116 = tested on: HCT-116
NCI-H23 = tested on: NCI-H23
Malme-3M = tested on: Malme-3M
DLD-1 = tested on: DLD-1
KM12 = tested on: KM12
HOP-62 = tested on: HOP-62
HOP-18 = tested on: HOP-18
HCT-15 = tested on: HCT-15
DMS-273 = tested on: DMS-273
K562 = tested on: K562
OVCAR-4 = tested on: OVCAR-4
SN12C = tested on: SN12C
SR = tested on: SR
CAKI-1 = tested on: CAKI-1
MOLT-4 = tested on: MOLT-4
UO-31 = tested on: UO-31
HT-29 = tested on: HT-29
SK-MEL-2 = tested on: SK-MEL-2
CCRF-CEM = tested on: CCRF-CEM
SK-OV-3 = tested on: SK-OV-3
A549 = tested on: A549
ACHN = tested on: ACHN
786-0 = tested on: 786-0
HCC 2998 = tested on: HCC 2998
SNB-75 = tested on: SNB-75
NCI-H226 = tested on: NCI-H226
SF-268 = tested on: SF-268
HOP-92 = tested on: HOP-92
HL-60 = tested on: HL-60
COLO 205 = tested on: COLO 205
M19-MEL = tested on: M19-MEL
A498 = tested on: A498
SF-539 = tested on: SF-539
UACC-62 = tested on: UACC-62
LXFL 529 = tested on: LXFL 529
EKVX = tested on: EKVX
RPMI-8226 = tested on: RPMI-8226
OVCAR-5 = tested on: OVCAR-5
XF498 = tested on: XF498

CCC[C@H]1O[C@@H]2CC(=O)O[C@@H]2C2=C1C(=O)C=CC2=O
GI50 (SNB-78): 23.3 µM (inactive)
GI50 (OVCAR-3): 14.1 µM (inactive)
GI50 (TK-10): > 42.8 µM (inactive)
GI50 (SNB-19): > 60.4 µM (inactive)
GI50 (SF-295): 25.4 µM (inactive)
GI50 (IGROV-1): 18 µM (inactive)
GI50 (M14): 18.7 µM (inactive)
GI50 (NCI-H522): 2.2 µM (inactive)
GI50 (SK-MEL-5): 20.1 µM (inactive)
GI50 (KM-20L2): 21.4 µM (inactive)
GI50 (NCI-H460): > 100 µM (inactive)
GI50 (SK-MEL-28): 17.2 µM (inactive)
GI50 (UACC-257): 18.9 µM (inactive)
GI50 (RXF 393): 16 µM (inactive)
GI50 (OVCAR-8): > 47.4 µM (inactive)
GI50 (SW-620): 11.2 µM (inactive)
GI50 (U-251): > 39.4 µM (inactive)
GI50 (LOX IMVI): 21 µM (inactive)
GI50 (HCT-116): 18 µM (inactive)
GI50 (NCI-H23): 13.6 µM (inactive)
GI50 (Malme-3M): 18.2 µM (inactive)
GI50 (DLD-1): 17.7 µM (inactive)
GI50 (KM12): 23.6 µM (inactive)
GI50 (HOP-62): > 54.1 µM (inactive)
GI50 (HOP-18): 18 µM (inactive)
GI50 (HCT-15): 15.3 µM
GI50 (DMS-273): 13.6 µM (inactive)
GI50 (K562): 5.09 µM (inactive)
GI50 (OVCAR-4): 16.3 µM (inactive)
GI50 (SN12C): 18.1 µM (inactive)
GI50 (SR): 16.7 µM (inactive)
GI50 (CAKI-1): 19.2 µM (inactive)
GI50 (MOLT-4): 3.32 µM (inactive)
GI50 (UO-31): 18.5 µM (inactive)
GI50 (HT-29): 22 µM (inactive)
GI50 (SK-MEL-2): 20.3 µM (inactive)
GI50 (CCRF-CEM): 3.92 µM (inactive)
GI50 (SK-OV-3): > 39.9 µM (inactive)
GI50 (A549): 32.6 µM (inactive)
GI50 (ACHN): 13.1 µM (inactive)
GI50 (786-0): 16.3 µM (inactive)
GI50 (HCC 2998): > 43.1 µM (inactive)
GI50 (SNB-75): 17 µM (inactive)
GI50 (NCI-H226): 13.7 µM (inactive)
GI50 (SF-268): 12.9 µM (inactive)
GI50 (HOP-92): 2.7 µM (inactive)
GI50 (HL-60): 5.7 µM (inactive)
GI50 (COLO 205): 3.38 µM (inactive)
GI50 (M19-MEL): 20.3 µM (inactive)
GI50 (A498): 34.2 µM (inactive)
GI50 (SF-539): 19.4 µM (inactive)
GI50 (UACC-62): 17.9 µM (inactive)
GI50 (LXFL 529): 15.6 µM (inactive)
GI50 (EKVX): > 44.1 µM (inactive)
GI50 (RPMI-8226): 25.6 µM (inactive)
GI50 (OVCAR-5): 19.7 µM (inactive)

COc1ccc(OC)c(NC(=O)C(=O)NNC(=O)c2sc(NNC(C)=O)nc2C)c1
GI50 (SNB-78): 27 µM (inactive)
GI50 (OVCAR-3): 21.8 µM (inactive)
GI50 (TK-10): 88.3 µM (inactive)
GI50 (SNB-19): 59.4 µM (inactive)
GI50 (SF-295): 32 µM (inactive)
GI50 (IGROV-1): 53.5 µM (inactive)
GI50 (M14): 50.9 µM (inactive)
GI50 (NCI-H522): 18.2 µM (inactive)
GI50 (SK-MEL-5): 39.9 µM (inactive)
GI50 (KM-20L2): 33.4 µM (inactive)
GI50 (NCI-H460): 30.8 µM (inactive)
GI50 (SK-MEL-28): 61.2 µM (inactive)
GI50 (UACC-257): 23.6 µM (inactive)
GI50 (OVCAR-8): 34.9 µM (inactive)
GI50 (SW-620): 22.6 µM (inactive)
GI50 (U-251): 36.6 µM (inactive)
GI50 (LOX IMVI): 26.2 µM (inactive)
GI50 (HCT-116): 28.6 µM (inactive)
GI50 (NCI-H23): 21.8 µM (inactive)
GI50 (Malme-3M): 49.2 µM (inactive)
GI50 (KM12): 39.4 µM (inactive)
GI50 (HOP-62): 92.9 µM (inactive)
GI50 (HCT-15): 31 µM
GI50 (K562): 17.1 µM (inactive)
GI50 (OVCAR-4): 26.3 µM (inactive)
GI50 (SN12C): 33 µM (inactive)
GI50 (SR): 32.1 µM (inactive)
GI50 (CAKI-1): 41.3 µM (inactive)
GI50 (XF498): 25.6 µM (inactive)
GI50 (MOLT-4): 18.7 µM (inactive)
GI50 (UO-31): 45.4 µM (inactive)
GI50 (HT-29): 35.6 µM (inactive)
GI50 (SK-MEL-2): 43 µM (inactive)
GI50 (CCRF-CEM): 16.9 µM (inactive)
GI50 (SK-OV-3): 57.7 µM (inactive)
GI50 (A549): 31.2 µM (inactive)
GI50 (ACHN): 29.2 µM (inactive)
GI50 (786-0): 35.6 µM (inactive)
GI50 (HCC 2998): 45.1 µM (inactive)
GI50 (NCI-H226): 32.7 µM (inactive)
GI50 (SF-268): 27.3 µM (inactive)
GI50 (HOP-92): 8.69 µM (inactive)
GI50 (HL-60): 36.2 µM (inactive)
GI50 (M19-MEL): 60.1 µM (inactive)
GI50 (A498): 8.3 µM (inactive)
GI50 (SF-539): 26.8 µM (inactive)
GI50 (UACC-62): 29.6 µM (inactive)
GI50 (LXFL 529): 29.4 µM (inactive)
GI50 (EKVX): 37.5 µM (inactive)
GI50 (RPMI-8226): 30.3 µM (inactive)
GI50 (OVCAR-5): 72.4 µM (inactive)

— ChEMBL document CHEMBL1201862, “PubChem BioAssay data set” (2004)
